# In patent US20150307520A1, “NOVEL HETEROARYL AND HETEROCYCLE COMPOUNDS, COMPOSITIONS AND METHODS THEREOF” (HUTCHISON MEDIPHARMA LIMITED, priority 2012, published 2015):
# Experiments:
# Assay type in all cases: biochemical
# p110δ/p85α = p110δ/p85α (Homo sapiens, UniProt O00329); experiment: Transcreener KINASE Assay, kinase inhibition of p110δ/p85α; conditions: for PI3Kδ IH % @ 1 uM: 1 uM test compound; for IC50: read-out: PI3Kδ IC50
# Outline: (§1)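 Recombinant PI3K/p85α heterodimers were incubated with compound (2% DMSO final) for 80 min at room temperature in 50 mM HEPES, 100 mM NaCl, 1 mM EGTA, 0.03% CHAPS, 3 mM MgCl2, 1 mM DTT, with substrate added as a 30 uM PIP2/10 uM ATP mix. ADP was detected by competitive fluorescence polarization immunoassay.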
# p110γ = p110γ (Homo sapiens, UniProt P48736); experiment: Transcreener KINASE Assay, kinase inhibition of p110γ; conditions: for PI3Kγ IH % @ 1 uM: 1 uM test compound; for IC50: read-out: PI3Kγ IC50
# Outline: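 ADP-detecting fluorescence polarization immunoassay run as two-step endpoint: kinase reaction for 80 min, detection for 60 min, both at room temperature. Enzymes are recombinant p110 isoforms with p85α, except p110γ. IC50s derived from fitted inhibition curves.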
# p110β/p85α = p110β/p85α (Homo sapiens, UniProt P42338); experiment: Transcreener KINASE Assay, kinase inhibition of p110β/p85α; conditions: for PI3Kβ IH % @ 1 uM: 1 uM test compound; for IC50: read-out: PI3Kβ IC50
# Outline: as §1
# Chain of p110γ (P48736 whole entry, canonical isoform): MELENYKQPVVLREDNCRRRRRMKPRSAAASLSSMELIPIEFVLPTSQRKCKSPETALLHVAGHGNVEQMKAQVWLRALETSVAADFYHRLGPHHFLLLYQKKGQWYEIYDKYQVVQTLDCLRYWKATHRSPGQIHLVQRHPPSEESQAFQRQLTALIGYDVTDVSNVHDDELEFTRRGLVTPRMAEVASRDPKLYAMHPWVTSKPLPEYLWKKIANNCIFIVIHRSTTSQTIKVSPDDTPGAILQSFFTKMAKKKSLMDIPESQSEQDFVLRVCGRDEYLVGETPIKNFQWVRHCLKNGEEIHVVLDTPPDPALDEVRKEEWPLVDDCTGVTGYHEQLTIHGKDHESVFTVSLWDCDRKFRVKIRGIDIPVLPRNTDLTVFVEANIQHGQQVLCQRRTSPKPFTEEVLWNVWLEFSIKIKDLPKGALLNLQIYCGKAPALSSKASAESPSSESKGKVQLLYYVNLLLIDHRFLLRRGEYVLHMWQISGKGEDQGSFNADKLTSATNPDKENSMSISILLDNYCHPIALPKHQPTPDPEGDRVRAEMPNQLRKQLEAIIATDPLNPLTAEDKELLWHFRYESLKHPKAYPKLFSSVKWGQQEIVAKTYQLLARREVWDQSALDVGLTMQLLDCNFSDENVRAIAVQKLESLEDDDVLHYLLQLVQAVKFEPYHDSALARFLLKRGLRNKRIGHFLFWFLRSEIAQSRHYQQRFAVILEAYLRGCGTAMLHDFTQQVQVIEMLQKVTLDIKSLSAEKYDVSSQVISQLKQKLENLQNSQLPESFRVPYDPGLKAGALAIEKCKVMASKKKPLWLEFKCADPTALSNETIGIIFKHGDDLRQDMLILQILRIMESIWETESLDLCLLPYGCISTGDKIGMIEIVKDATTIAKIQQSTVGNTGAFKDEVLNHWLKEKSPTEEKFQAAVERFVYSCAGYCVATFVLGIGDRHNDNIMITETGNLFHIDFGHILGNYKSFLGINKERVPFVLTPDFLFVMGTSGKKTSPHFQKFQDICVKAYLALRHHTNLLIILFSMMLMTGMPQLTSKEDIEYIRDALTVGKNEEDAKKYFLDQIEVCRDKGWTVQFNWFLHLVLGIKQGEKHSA
# Chain of p110β/p85α (P42338 whole entry): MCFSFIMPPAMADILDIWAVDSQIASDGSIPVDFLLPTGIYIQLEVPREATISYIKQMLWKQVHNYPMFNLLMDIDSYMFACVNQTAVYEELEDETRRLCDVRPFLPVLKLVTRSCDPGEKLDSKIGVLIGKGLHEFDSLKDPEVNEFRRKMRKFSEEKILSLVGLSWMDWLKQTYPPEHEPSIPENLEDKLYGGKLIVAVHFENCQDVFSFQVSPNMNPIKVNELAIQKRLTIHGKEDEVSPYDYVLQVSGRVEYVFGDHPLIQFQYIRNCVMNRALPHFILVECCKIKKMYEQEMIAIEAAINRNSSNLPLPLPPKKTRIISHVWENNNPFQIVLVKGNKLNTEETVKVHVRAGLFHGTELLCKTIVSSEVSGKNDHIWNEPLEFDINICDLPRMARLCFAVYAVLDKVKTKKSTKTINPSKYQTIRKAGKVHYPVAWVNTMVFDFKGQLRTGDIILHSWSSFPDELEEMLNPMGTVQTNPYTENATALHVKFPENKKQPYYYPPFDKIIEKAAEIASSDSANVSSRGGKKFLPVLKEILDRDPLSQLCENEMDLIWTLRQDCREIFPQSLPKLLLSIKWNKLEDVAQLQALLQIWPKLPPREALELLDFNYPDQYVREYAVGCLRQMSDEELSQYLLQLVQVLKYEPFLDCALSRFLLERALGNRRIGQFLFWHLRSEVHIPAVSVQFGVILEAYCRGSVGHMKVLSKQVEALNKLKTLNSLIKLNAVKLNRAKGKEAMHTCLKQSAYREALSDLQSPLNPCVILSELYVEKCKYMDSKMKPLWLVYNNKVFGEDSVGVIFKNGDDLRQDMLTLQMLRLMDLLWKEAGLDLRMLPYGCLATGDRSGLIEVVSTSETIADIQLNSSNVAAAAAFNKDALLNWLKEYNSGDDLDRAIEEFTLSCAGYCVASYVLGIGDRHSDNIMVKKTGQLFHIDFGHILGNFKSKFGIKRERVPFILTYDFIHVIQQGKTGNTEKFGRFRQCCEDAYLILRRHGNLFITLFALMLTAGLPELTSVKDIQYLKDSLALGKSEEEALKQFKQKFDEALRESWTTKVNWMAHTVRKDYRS
# Chain of p110β/p85α (P27986 2-724 partner): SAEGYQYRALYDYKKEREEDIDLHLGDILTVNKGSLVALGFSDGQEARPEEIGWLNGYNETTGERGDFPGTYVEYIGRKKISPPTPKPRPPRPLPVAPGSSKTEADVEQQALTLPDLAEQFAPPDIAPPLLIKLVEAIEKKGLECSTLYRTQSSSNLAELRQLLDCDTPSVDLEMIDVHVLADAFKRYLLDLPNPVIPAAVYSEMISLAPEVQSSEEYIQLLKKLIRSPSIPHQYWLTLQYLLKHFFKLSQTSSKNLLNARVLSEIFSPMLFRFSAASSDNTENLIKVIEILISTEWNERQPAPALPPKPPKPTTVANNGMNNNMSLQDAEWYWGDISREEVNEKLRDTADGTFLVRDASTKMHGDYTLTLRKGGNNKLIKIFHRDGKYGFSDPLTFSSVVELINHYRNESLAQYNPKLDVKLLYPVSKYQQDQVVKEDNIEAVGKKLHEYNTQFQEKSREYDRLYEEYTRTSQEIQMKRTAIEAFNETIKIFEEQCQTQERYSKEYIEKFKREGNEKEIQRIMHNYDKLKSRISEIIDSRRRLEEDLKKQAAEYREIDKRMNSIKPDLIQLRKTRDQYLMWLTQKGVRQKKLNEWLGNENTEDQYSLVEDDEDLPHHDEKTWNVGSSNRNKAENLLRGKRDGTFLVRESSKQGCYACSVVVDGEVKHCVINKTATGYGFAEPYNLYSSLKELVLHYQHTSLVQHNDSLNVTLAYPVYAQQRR
# Chain of p110δ/p85α (O00329 whole entry): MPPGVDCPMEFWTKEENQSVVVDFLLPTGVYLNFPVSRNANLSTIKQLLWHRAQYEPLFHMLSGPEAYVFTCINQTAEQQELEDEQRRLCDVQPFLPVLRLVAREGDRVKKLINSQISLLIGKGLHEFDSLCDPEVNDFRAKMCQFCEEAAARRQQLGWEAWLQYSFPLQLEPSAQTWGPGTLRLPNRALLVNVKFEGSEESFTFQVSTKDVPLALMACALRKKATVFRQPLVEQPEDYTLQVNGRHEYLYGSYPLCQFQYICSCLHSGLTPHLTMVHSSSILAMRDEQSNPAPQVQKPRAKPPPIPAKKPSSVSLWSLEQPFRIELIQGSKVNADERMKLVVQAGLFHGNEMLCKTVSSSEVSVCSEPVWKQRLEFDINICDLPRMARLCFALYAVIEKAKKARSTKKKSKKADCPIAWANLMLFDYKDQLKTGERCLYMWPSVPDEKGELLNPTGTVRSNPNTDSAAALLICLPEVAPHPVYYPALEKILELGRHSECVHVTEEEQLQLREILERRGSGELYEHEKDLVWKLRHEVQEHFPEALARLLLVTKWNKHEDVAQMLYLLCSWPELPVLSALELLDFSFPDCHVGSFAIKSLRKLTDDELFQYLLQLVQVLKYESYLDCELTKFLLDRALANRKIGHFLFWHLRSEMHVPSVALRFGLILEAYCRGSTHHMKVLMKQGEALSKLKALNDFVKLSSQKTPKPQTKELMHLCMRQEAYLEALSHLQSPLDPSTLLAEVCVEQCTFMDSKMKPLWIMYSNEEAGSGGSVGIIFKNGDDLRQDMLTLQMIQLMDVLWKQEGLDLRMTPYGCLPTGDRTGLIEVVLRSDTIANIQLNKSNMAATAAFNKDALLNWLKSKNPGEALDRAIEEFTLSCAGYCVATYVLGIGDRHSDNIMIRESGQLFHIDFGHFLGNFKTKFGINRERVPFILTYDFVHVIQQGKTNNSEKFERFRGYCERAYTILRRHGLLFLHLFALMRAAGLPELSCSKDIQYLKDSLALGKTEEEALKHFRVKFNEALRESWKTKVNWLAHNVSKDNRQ
# Chain of p110δ/p85α (P27986 whole entry partner): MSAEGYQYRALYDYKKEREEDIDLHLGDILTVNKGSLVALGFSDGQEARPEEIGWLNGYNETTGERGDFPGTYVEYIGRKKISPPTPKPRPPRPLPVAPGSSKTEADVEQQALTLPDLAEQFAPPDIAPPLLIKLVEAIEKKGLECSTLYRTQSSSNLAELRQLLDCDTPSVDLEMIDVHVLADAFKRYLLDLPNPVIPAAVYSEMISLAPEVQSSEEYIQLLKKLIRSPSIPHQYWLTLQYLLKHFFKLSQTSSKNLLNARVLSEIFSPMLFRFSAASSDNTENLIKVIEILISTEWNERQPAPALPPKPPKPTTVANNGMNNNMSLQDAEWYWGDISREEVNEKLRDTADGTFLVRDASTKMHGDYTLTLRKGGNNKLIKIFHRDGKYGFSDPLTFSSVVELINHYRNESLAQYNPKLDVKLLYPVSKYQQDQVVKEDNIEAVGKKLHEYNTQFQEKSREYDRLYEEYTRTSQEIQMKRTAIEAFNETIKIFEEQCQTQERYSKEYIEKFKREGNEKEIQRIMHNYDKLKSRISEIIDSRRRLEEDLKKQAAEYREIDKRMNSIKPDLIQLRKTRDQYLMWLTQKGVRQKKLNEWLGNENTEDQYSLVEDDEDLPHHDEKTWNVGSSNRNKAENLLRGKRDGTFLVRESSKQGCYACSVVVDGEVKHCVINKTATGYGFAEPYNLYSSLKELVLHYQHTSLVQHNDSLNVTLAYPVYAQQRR
Compound,PI3Kδ IH % @ 1 uM (p110δ/p85α),IC50 (p110δ/p85α),PI3Kγ IH % @ 1 uM (p110γ),IC50 (p110γ),PI3Kβ IH % @ 1 uM (p110β/p85α),IC50 (p110β/p85α)
"O=c1c2c(Cl)ccn2nc([C@@H]2C[S+]([O-])CN2c2ncnc3[nH]cnc23)n1-c1ccccc1 (stereo partly drawn) [Compound 293, 5-chloro-2-((4R)-1-oxido-3-(9H-purin-6-yl)thiazolidin-4-yl)-3-phenylpyrrolo[2,1-f][1,2,4]triazin-4(3H)-one]",98.9%,0.014 µM,94.7%,0.103 µM,54.2%,
O=c1c2c(Cl)ccn2nc([C@@H]2CCCN2c2ncnc3[nH]cnc23)n1Cc1ccccn1 [Compound 68],98.5%,0.028 µM,73.8%,0.078 µM,52.1%,
CC1(C)CN(c2nc(N)ncc2Cl)C1c1nn2ccc(Cl)c2c(=O)n1-c1ccccc1 (stereo not shown) [Compound 466],>100%,0.02 µM,93.9%,0.048 µM,45.4%,
Nc1nc(N2CC(F)(F)C[C@H]2c2nn3ccc(Cl)c3c(=O)n2-c2ccccc2)n2nccc2n1 [Compound 136],83.5%,0.124 µM,95.0%,0.042 µM,27.6%,
CC(=O)c1cnc(N)nc1NC(C)c1cc2ncc(Cl)n2c(=O)n1-c1ccccc1 (stereo not shown) [Compound 288],99.7%,0.004 µM,95.8%,0.021 µM,94.5%,0.093 µM
COc1ncc(-c2n[nH]c3ncnc(N4CC[C@H]4c4nn5ccc(Cl)c5c(=O)n4-c4ccccc4)c23)cn1 [Compound 172],99.6%,0.002 µM,79.8%,0.297 µM,38.2%,
CO[C@H]1C[C@@H](c2nn3ccc(Cl)c3c(=O)n2-c2ccccc2)N(c2ncnc3[nH]cnc23)C1 [Compound 263],>100%,0.004 µM,>100%,0.017 µM,74.5%,0.118 µM
N#Cc1cnc(N)nc1N1CCC[C@H]1c1nn2ccc(F)c2c(=O)n1-c1ccccc1 [Compound 230],>100%,0.003 µM,87.3%,0.007 µM,75.2%,0.28 µM
O=c1c2c(Cl)ccn2nc([C@@H]2C[C@@H](F)CN2c2ncnc3[nH]cnc23)n1-c1ccccc1 [Compound 47],>100%,0.026 µM,84.7%,0.152 µM,47.3%,
Cc1nc(N)nc(N2CCC[C@H]2c2nn3ccc(Cl)c3c(=O)n2-c2ccccc2)n1 [Compound 201],>100%,0.019 µM,>100%,0.049 µM,25.3%,
Nc1nc2c(c(N3CC[C@H]3c3nn4ccc(F)c4c(=O)n3-c3ccccc3)n1)C(=O)CCN2 [Compound 248],96.2%,0.009 µM,98.0%,0.009 µM,−10.7%,
"CC(=O)c1cnc(N)nc1N[C@H](C)c1cc2ncc(Cl)n2c(=O)n1-c1ccccc1 (single isomer, unassigned) [Compound 448]",98.8%,0.017 µM,82.3%,0.105 µM,55.9%,
O=c1c2c(Cl)ccn2nc([C@@H]2CCN2c2ncnc3[nH]ccc23)n1-c1ccccc1 [Compound 142],81.1%,0.298 µM,75.5%,0.39 µM,13.5%,
C[C@H]1CN(c2nc(N)ncc2Cl)[C@@H]1c1nn2ccc(F)c2c(=O)n1-c1ccccc1 [Compound 464],>100%,0.005 µM,80.6%,0.138 µM,33.0%,

# Further lines, results first:
PI3Kδ IH % @ 1 uM (p110δ/p85α),IC50 (p110δ/p85α),PI3Kγ IH % @ 1 uM (p110γ),IC50 (p110γ),PI3Kβ IH % @ 1 uM (p110β/p85α),IC50 (p110β/p85α),Compound
>100%,0.003 µM,92.3%,0.002 µM,86.5%,0.332 µM,"CC(=O)c1c[nH]c2ncnc(N[C@H](C)c3cn4ccc(F)c4c(=O)n3-c3ccccc3)c12 [Compound 405, (R)-3-(1-((5-acetyl-7H-pyrrolo[2,3-d]pyrimidin-4-yl)amino)ethyl)-8-fluoro-2-phenylpyrrolo[1,2-a]pyrazin-1(2H)-one]"
99.5%,0.001 µM,97.0%,0.011 µM,81.4%,0.247 µM,CC(Nc1ncnc2[nH]cc(C#N)c12)c1cn2ccc(Cl)c2c(=O)n1-c1cccc(F)c1 (stereo not shown) [Compound 277]
93.4%,0.067 µM,65.8%,,21.7%,,CC(=O)c1c[nH]c2ncnc(N3CC(=O)C[C@H]3c3nn4ccc(Cl)c4c(=O)n3-c3ccccc3)c12 [Compound 402]
95.2%,0.011 µM,95.8%,0.017 µM,20.3%,,CC(=O)c1cnc(N)nc1N1CC[C@H]1c1nn2ccc(Cl)c2c(=O)n1-c1cccc(F)c1 [Compound 440]
96.9%,0.039 µM,75.6%,0.312 µM,51.2%,,"C[S@+]([O-])c1c[nH]c2ncnc(N3C[C@@H](C#N)C[C@H]3c3nn4ccc(Cl)c4c(=O)n3-c3cccc(F)c3)c12 [Compound 348, (3S,5S)-5-(5-chloro-3-(3-fluorophenyl)-4-oxo-3,4-dihydropyrrolo[2,1-f][1,2,4]triazin-2-yl)-1-(5-((S)-methylsulfinyl)-7H-pyrrolo[2,3-d]pyrimidin-4-yl)pyrrolidine-3-carbonitrile]"
81.2%,,83.3%,0.089 µM,30.6%,,N#Cc1c[nH]c2ncnc(N3CC[C@H]3c3nn4ccc(Cl)c4c(=O)n3-c3ccc(F)cc3)c12 [Compound 37]
98.1%,0.009 µM,96.8%,0.004 µM,80.5%,0.197 µM,N#Cc1cnc(N)nc1N1CCC[C@H]1c1nn2ccc(Cl)c2c(=O)n1-c1ccc(F)cc1 [Compound 231]
97.8%,0.018 µM,33.3%,,17.8%,,CC(Nc1ncnc2[nH]cc(C#N)c12)c1cc2c(Cl)cc(Cl)n2c(=O)n1-c1cccc(F)c1 (stereo not shown) [Compound 129]
>100%,,>100%,,>100%,,C[C@H]1CCN(c2ncnc3[nH]cc(C#N)c23)C1c1nn2ccc(Cl)c2c(=O)n1-c1ccccc1 (stereo partly shown) [Compound 233]
95.5%,0.002 µM,97.7%,0.014 µM,56.2%,,Cc1nc(N)nc(N2CC[C@H]2c2nn3ccc(Cl)c3c(=O)n2-c2cccc(F)c2)c1C#N [Compound 441]
>100%,0.003 µM,98.3%,0.005 µM,98.8%,0.012 µM,CC(=O)c1cnc(N)nc1NC(C)c1cn2ccc(Cl)c2c(=O)n1-c1ccccc1 (stereo not shown) [Compound 273]
